{
  "source": "patent US9023356B2",
  "about": "“Treatment method using EGFR antibodies and SRC inhibitors and related formulations” (Ludwig Institute for Cancer Research Ltd, priority 2007, dated 2015)",
  "molecules": {"B1": {"name": "EMD72000: EGFR inhibitor listed in Table 1 (antibody, chains of the INN, looked up, V domains shown)", "VH": "QVQLVQSGAEVKKPGASVKVSCKASGYTFTSHWMHWVRQAPGQGLEWIGEFNPSNGRTNYNEKFKSKATMTVDTSTNTAYMELSSLRSEDTAVYYCASRDYDYDGRYFDYWGQGTLVTVSS", "VL": "DIQMTQSPSSLSASVGDRVTITCSASSSVTYMYWYQQKPGKAPKLLIYDTSNLASGVPSRFSGSGSGTDYTFTISSLQPEDIATYYCQQWSSHIFTFGQGTKVEIK"}},
  "key": {"[1]": {"test_system": "Patients with colorectal cancer", "conditions": "full text: Response correlated with increase in EGFR copy number; small sample numbers; cited from earlier work"}, "[2]": {"test_system": "de2-7 EGFR phosphorylation in U87MG glioma cells", "experiment": "Immunoblotting of de2-7 EGFR phosphorylation after Src-family kinase inhibitors", "format": "cell-based", "conditions": "10 μM, 30 minutes or 24 h, serum starved cells", "method": "FIG. 7A-7C. Interaction between de2-7 EGFR and Src. (A) Cells were serum starved overnight prior to treatment with 10 μM PP1 or PP2 or vehicle (DMSO) for 30 minutes or 24 h prior to immunoprecipitation with mAb528, mAb806 or an irrelevant isotype control. Immunoblotting was performed with an antibody specific for Y845 of the EGFR, while total de2-7 EGFR was visualized with the rabbit c-terminal polyclonal antibody. Results shown are representative of four independent experiments. […] Mice were treated with 1 mg mAb 806 three times per week for two weeks (days 18, 20, 22, 25, 27 and 29).\nCells were lysed in cold lysis buffer (30 mM HEPES, 150 mM NaCl, 10 mM NaF, 1% Triton X-100, 200 μM NaO3V, 0.4% H2O2 and the protease inhibitor cocktail set 1 (Calbiochem, San Diego, Calif.) containing 500 μM AEBSF, 150 nM Aprotinin, 1 μM E-64 protease inhibitor, 0.5 mM EDTA and 1 μM Leupeptin, pH 7.4). Lysates were immunoprecipitated with the mAb 806 or 528 and the resultant precipitates analyzed by immunoblotting as described by us in detail (21).\nActivation of the wt EGFR leads to the transient activation of Src kinase. In a synergistic manner, activation of Src leads to phosphorylation tyrosine 845 (Y845) on the EGFR, which is not an auto-phosphorylation site rather a target for Src phosphorylation (24). Using an antibody specific to Y845 we examined the phosphorylation of Y845 in the de2-7 EGFR."}, "[3]": {"test_system": "BT474 breast and MKN7 gastric cancer cells in vitro", "conditions": "full text: Activation of erbB2/3 heterodimers by heregulin generated resistance; no in vivo data; cited from earlier work"}, "Patients with NSCLC [4]": {"test_system": "Patients with NSCLC", "conditions": "full text: A secondary mutation in EGFR kinase causes resistance; cited from earlier work"}, "[5]": {"test_system": "Glioma cell lines in vitro", "conditions": "full text: Resistant glioma expresses IGFR-1 which is further up-regulated by AG1478; effect appears mediated through PI3-K/Akt; single cell line in vitro; cited from earlier work"}, "[6]": {"test_system": "Multiple cell lines in vitro and xenografts", "conditions": "full text: More difficult to inhibit the phosphorylation of EGFR in the presence of ErbB2; cited from earlier work"}, "[7]": {"test_system": "Multiple cell lines in vitro", "conditions": "full text: Sensitivity correlated with wt EGFR number. Constitutive active MAPK increased resistance; no in vivo data; cited from earlier work"}, "[8]": {"test_system": "Multiple cell lines in vitro", "conditions": "full text: Sustained signaling through Akt or Erk may cause resistance; no in vivo data; cited from earlier work"}, "[9]": {"test_system": "A431 and MDA-468 breast cancer cells in vitro", "conditions": "full text: Sustained signaling through Akt causes resistance. Presence of PTEN increases effectiveness of EGFR therapeutics; no in vivo data; cited from earlier work"}, "Patients with NSCLC [10]": {"test_system": "Patients with NSCLC", "conditions": "full text: Patients with activating mutations in the EGFR kinase domain more likely to respond; not all patients with mutations respond; cited from earlier work"}, "[11]": {"test_system": "Multiple cell lines in vitro", "conditions": "full text: Sensitivity correlated with wt EGFR number; no in vivo data; cited from earlier work"}, "[12]": {"test_system": "Multiple cell lines in vitro and xenografts", "conditions": "full text: Sensitivity correlated with wt EGFR number; cited from earlier work"}},
  "note": "Where two headings read alike, the source gives them in different places.",
  "data": [
    {"molecule": "ABX: monoclonal antibody directed to the EGFR", "values": [
      {"measurement": "Observation", "setting": "[1]", "result": "Response correlated"}
    ]},
    {"molecule": "CC(C)(C)n1nc(-c2ccc(Cl)cc2)c2c(N)ncnc21", "note": "[PP2, (4-chlorophenyl)-7-(t-butyl)pyrazolo[3,4-d]-pyrimidine]", "values": [
      {"measurement": "Phosphorylation at Y845 of de2-7 EGFR", "setting": "[2]", "result": "rapidly blocked"},
      {"measurement": "autophosphorylation site at Y1173 of de2-7 EGFR", "setting": "[2]", "result": "relatively unaffected"}
    ]},
    {"molecule": "Cc1[nH]c2ncnc(Nc3cccc(Cl)c3)c2c1C", "note": "[CGP59326]", "values": [
      {"measurement": "Observation", "setting": "[3]", "result": "Activation of erbB2/3"}
    ]},
    {"molecule": "C#Cc1cccc(Nc2ncnc3cc(OCCOC)c(OCCOC)cc23)c1", "note": "[OSI-774]", "values": [
      {"measurement": "Observation", "setting": "Patients with NSCLC [4]", "result": "A secondary mutation"}
    ]},
    {"molecule": "COc1cc2ncnc(Nc3cccc(Cl)c3)c2cc1OC", "note": "[AG1478]", "values": [
      {"measurement": "Observation", "setting": "[5]", "result": "Resistant glioma"}
    ]},
    {"molecule": "COc1cc2ncnc(Nc3ccc(F)c(Cl)c3)c2cc1OCCCN1CCOCC1", "note": "[ZD1839]", "values": [
      {"measurement": "Observation", "setting": "[6]", "result": "More difficult to inhibit"},
      {"measurement": "Observation", "setting": "[7]", "result": "Sensitivity correlated"},
      {"measurement": "Observation", "setting": "[8]", "result": "Sustained signaling"},
      {"measurement": "Observation", "setting": "[9]", "result": "Sustained signaling"},
      {"measurement": "Observation", "setting": "Patients with NSCLC [10]", "result": "Patients with activating"},
      {"measurement": "Observation", "setting": "Patients with NSCLC [4]", "result": "A secondary mutation"}
    ]},
    {"molecule": "COc1cc2ncnc(Nc3cccc(Br)c3)c2cc1OC", "note": "[PD153035]", "values": [
      {"measurement": "Observation", "setting": "[11]", "result": "Sensitivity correlated"},
      {"measurement": "Observation", "setting": "[8]", "result": "Sustained signaling"}
    ]},
    {"molecule": "B1", "values": [
      {"measurement": "Observation", "setting": "[12]", "result": "Sensitivity correlated"}
    ]}
  ]
}
